The results in this text go back to ChEMBL document CHEMBL1201862, “PubChem BioAssay data set” (2004).

Some test systems named below: MDA-MB-231; HCT-116; SF-268; IGROV-1; CAKI-1; 786-0; HL-60; UACC-62; OVCAR-8; HCT-15; ACHN; RXF 393; SK-MEL-5; OVCAR-4; A549; K562; NCI/ADR-RES; SK-OV-3; M14; HCC 2998.
Holding throughout (experiment): NCI anticancer screen, dose series, 48 h

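Method: 48-hour compound exposure of cells in 96-well plates, five concentrations, linear interpolation of endpoints. At the GI50, growth is halved.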 Active and inactive are the calls of the source. No stated cut-off is given here; in the data, active = GI50 up to about 1.1 µM and inactive = higher.

As for `FC(F)(F)c1nc2nc(Cl)c(Cl)nc2n1CCCN1CCOCC1`, the GI50 was 78.2 µM (inactive) in the test on MDA-MB-231; 41.9 µM (inactive) in the test with HCT-116; 40.4 µM (inactive) in the test with SF-268; 26.4 µM (inactive) with IGROV-1; 3.71 µM (inactive) in the test on CAKI-1; > 100 µM (inactive) with 786-0. Besides, the GI50 with HL-60 is 19.1 µM (inactive); with UACC-62, 50.6 µM (inactive); in the test on OVCAR-8, 29.3 µM (inactive); with HCT-15, 29 µM; in the test on ACHN, > 100 µM (inactive); in the test on RXF 393, 25.4 µM (inactive). The GI50 is 61.5 µM (inactive) in the test with SK-MEL-5; 55.5 µM (inactive) in the test with OVCAR-4; > 100 µM (inactive) in the test with A549; 14.2 µM (inactive) in the test with K562; > 100 µM (inactive) with NCI/ADR-RES; > 100 µM (inactive) in the test with SK-OV-3. Besides, the GI50 in the test with M14 was 48.2 µM (inactive).

For `CC1=NN(c2ccccc2)C(=O)C1/N=N/c1ccc(S(N)(=O)=O)cc1` (stereo not drawn), the GI50 in the test with MDA-MB-231, in the test on HCT-116, in the test with SF-268, in the test with IGROV-1, in the test on CAKI-1 and in the test on 786-0 was > 100 µM (inactive) in each case. Also, the GI50 in the test on HL-60 is > 100 µM (inactive); in the test on UACC-62, > 100 µM (inactive); with OVCAR-8, > 100 µM (inactive); with HCT-15, > 100 µM; with ACHN, > 100 µM (inactive); with RXF 393, > 100 µM (inactive). Also, the GI50 in the test with SK-MEL-5, in the test on OVCAR-4, in the test with A549, in the test with K562, with NCI/ADR-RES and in the test on SK-OV-3 was > 100 µM (inactive) each time. Also, the GI50 with M14 is > 100 µM (inactive).

With `O=C(CC(C(=O)O)N1CCOCC1)c1ccccc1` (stereo not drawn), the GI50 in the test with MDA-MB-231 was 15.3 µM (inactive); with HCT-116, 14 µM (inactive); in the test with SF-268 it was 19.5 µM (inactive); with IGROV-1, 26.2 µM (inactive); in the test with 786-0, 15.1 µM (inactive); with HL-60, 20.6 µM (inactive). Moreover, the GI50 in the test with UACC-62 was 14.6 µM (inactive); with OVCAR-8, 30.8 µM (inactive); in the test on HCT-15, 19.5 µM; in the test with ACHN, 16 µM (inactive); in the test on RXF 393 it was 18.4 µM (inactive); with SK-MEL-5, 19.6 µM (inactive). The GI50 with OVCAR-4 was 23 µM (inactive); with A549, 57.8 µM (inactive); with K562, 18.8 µM (inactive); with NCI/ADR-RES, > 100 µM (inactive); in the test on SK-OV-3 it was 37 µM (inactive); in the test with M14, 14.6 µM (inactive).

In the case of `C=CCCC(CCC=C)(C(=O)O)C(=O)O`, the GI50 with MDA-MB-231, in the test with HCT-116, in the test on SF-268, in the test with IGROV-1, in the test with 786-0 and with HL-60 was > 100 µM (inactive) throughout. Moreover, the GI50 in the test with UACC-62 was > 100 µM (inactive); in the test with OVCAR-8, > 100 µM (inactive); in the test with HCC 2998, > 100 µM (inactive); with HCT-15, > 100 µM; in the test on ACHN it was > 100 µM (inactive); in the test on RXF 393 it was > 100 µM (inactive). The GI50 with SK-MEL-5, with A549, in the test with K562, with NCI/ADR-RES and in the test with M14 was > 100 µM (inactive) each time.

Turning to `O=C1CSC2(CC(/C=C/c3cccs3)=NN2c2cccc(S(=O)(=O)O)c2)N1c1nc2ccccc2s1` (stereo not drawn), the GI50 with MDA-MB-231 is > 100 µM (inactive); in the test on HCT-116 it was > 100 µM (inactive); in the test on SF-268 it was > 100 µM (inactive); in the test on IGROV-1, 27.4 µM (inactive); with CAKI-1, > 100 µM (inactive); with 786-0, 88.3 µM (inactive). Further, the GI50 with HL-60 is > 100 µM (inactive); in the test on UACC-62 it was 49.4 µM (inactive); with OVCAR-8 it was > 100 µM (inactive); in the test on HCC 2998, > 100 µM (inactive); with HCT-15, > 100 µM; in the test with ACHN, 68.9 µM (inactive). Moreover, the GI50 is > 100 µM (inactive) in the test on RXF 393; > 100 µM (inactive) in the test on SK-MEL-5; > 100 µM (inactive) in the test with OVCAR-4; > 100 µM (inactive) with A549; 49.4 µM (inactive) in the test on K562; > 100 µM (inactive) in the test with NCI/ADR-RES. Moreover, the GI50 in the test on M14 is > 100 µM (inactive).

`Cn1c2c(c3ccccc31)CCN1C(=O)CN(C(=O)C3CCCCC3)CC21` (stereo not drawn): the GI50 in the test on MDA-MB-231, in the test with HCT-116, in the test on SF-268, with IGROV-1, in the test with 786-0 and in the test on HL-60 was > 100 µM (inactive) each time. Also, the GI50 with UACC-62 is > 100 µM (inactive); with OVCAR-8 it was > 100 µM (inactive); in the test on HCC 2998, > 100 µM (inactive); with HCT-15, > 100 µM; in the test on ACHN it was > 100 µM (inactive); in the test with RXF 393, > 100 µM (inactive). The GI50 with SK-MEL-5, with OVCAR-4, with A549, in the test on K562, with NCI/ADR-RES and with SK-OV-3 was > 100 µM (inactive) in each case. Also, the GI50 with M14 was > 100 µM (inactive).

Regarding `Cc1ccc(S(=O)(=O)NC(=O)NC(CC(=O)O)C(=O)O)cc1` (stereo not drawn), the GI50 in the test on MDA-MB-231, with HCT-116, in the test on SF-268, with IGROV-1, in the test on 786-0 and with HL-60 was > 100 µM (inactive) throughout. Also, the GI50 in the test with UACC-62 is > 100 µM (inactive); with OVCAR-8, > 100 µM (inactive); in the test with HCT-15, > 100 µM; in the test with ACHN, > 100 µM (inactive); in the test with RXF 393, > 100 µM (inactive); in the test with SK-MEL-5, > 100 µM (inactive). Besides, the GI50 in the test on OVCAR-4, with A549, with K562, in the test with NCI/ADR-RES, in the test with SK-OV-3 and in the test with M14 was > 100 µM (inactive) throughout.

In the case of `CCOC(=O)C(=Cc1ccccc1Br)C(=O)OCC`, the GI50 in the test with MDA-MB-231 is 6.41 µM (inactive); in the test with HCT-116, 2.95 µM (inactive); in the test on SF-268 it was 3.11 µM (inactive); in the test on IGROV-1, 1.96 µM (inactive); with CAKI-1, 2.53 µM (inactive); in the test with 786-0, 3.05 µM (inactive). Also, the GI50 in the test on HL-60 is 0.585 µM (active); with UACC-62 it was 1.72 µM (inactive); with OVCAR-8, 2.38 µM (inactive); in the test with HCC 2998 it was 2.78 µM (inactive); with HCT-15, 1.67 µM; in the test on ACHN, 2.59 µM (inactive). Moreover, the GI50 with RXF 393 was 2.1 µM (inactive); in the test with SK-MEL-5, 1.85 µM (inactive); in the test on OVCAR-4, 4.09 µM (inactive); in the test on A549, 4 µM (inactive); in the test with K562, 0.656 µM (active); with NCI/ADR-RES it was 4.65 µM (inactive). For the same compound, the GI50 in the test with M14 is 0.424 µM (active).

Turning to `C[C@@H](C[C@@H](O)[C@H](O)C(C)(C)O)[C@H]1CC=C2[C@]3(C)[C@H](O)C[C@H]4C(C)(C)[C@H](O)CC[C@]4(C)[C@H]3CC[C@@]21C`, the GI50 with MDA-MB-231 is 13.8 µM (inactive); with HCT-116 it was 16.1 µM (inactive); in the test on SF-268 it was 13.4 µM (inactive); with IGROV-1, 16.3 µM (inactive); in the test with CAKI-1 it was 16.4 µM (inactive); in the test on 786-0 it was 15 µM (inactive). The GI50 is 14.2 µM (inactive) in the test with HL-60; 16.1 µM (inactive) in the test on OVCAR-8; 17.3 µM (inactive) with HCC 2998; 14.7 µM in the test on HCT-15; 14.3 µM (inactive) in the test on ACHN; 17 µM (inactive) in the test with RXF 393. In addition, the GI50 with SK-MEL-5 was 14.2 µM (inactive); with OVCAR-4, 14.4 µM (inactive); with A549, 12.7 µM (inactive); in the test with K562 it was 15.7 µM (inactive); in the test with NCI/ADR-RES, 13.8 µM (inactive); with M14, 15.1 µM (inactive).

Consider `CCOC(=O)[C@@]1(C(C)=O)CC(C)=C(C)C[S@@+]1[O-]`, for which the GI50 in the test on MDA-MB-231, in the test with HCT-116, in the test on SF-268, in the test with IGROV-1, in the test with CAKI-1 and in the test with 786-0 was > 100 µM (inactive) each time. For the same compound, the GI50 is > 100 µM (inactive) with UACC-62; > 100 µM (inactive) in the test on OVCAR-8; > 100 µM (inactive) with HCC 2998; > 100 µM in the test on HCT-15; > 100 µM (inactive) in the test with ACHN; > 100 µM (inactive) in the test on RXF 393. The GI50 in the test on OVCAR-4, in the test on A549, in the test with K562, in the test with NCI/ADR-RES, in the test on SK-OV-3 and with M14 was > 100 µM (inactive) each time.

As for `O=C(NCCCCNCCCNC(=O)c1ccccc1)c1ccccc1`, the GI50 in the test with MDA-MB-231, in the test with HCT-116, in the test on SF-268, with IGROV-1, in the test on 786-0 and with HL-60 was > 100 µM (inactive) throughout. The GI50 with UACC-62 was > 100 µM (inactive); in the test on OVCAR-8, > 100 µM (inactive); in the test on HCC 2998, > 100 µM (inactive); in the test on HCT-15, > 100 µM; in the test on ACHN, > 100 µM (inactive); in the test on RXF 393, > 100 µM (inactive). Besides, the GI50 in the test with SK-MEL-5, in the test on OVCAR-4, in the test with A549, in the test on K562, in the test with NCI/ADR-RES and in the test on SK-OV-3 was > 100 µM (inactive) each time. For the same compound, the GI50 in the test on M14 was > 100 µM (inactive).
